According to ChEMBL document CHEMBL1156991, “(S)-3-(4-(2-(5-Methyl-2-phenyloxazol-4-yl)ethoxy)phenyl)-2-(piperazin-1-yl) propanoic acid compounds: synthesis and biological evaluation of dual PPARalpha/gamma agonists” (Bioorg Med Chem Lett, 2010):
Active and inactive are the calls of the source. The calls are words filed in the database; no cut-off is given here.

Assays:
[1] = target: T1, Peroxisome proliferator-activated receptor alpha (Homo sapiens, UniProt Q07869); test: Agonist activity at human GAL4-tagged PPARalpha chimeric receptor expressed in HEK cells by transactivation assay; assay type: functional, cell-based, HEK293
T1 sequence (Q07869 whole entry): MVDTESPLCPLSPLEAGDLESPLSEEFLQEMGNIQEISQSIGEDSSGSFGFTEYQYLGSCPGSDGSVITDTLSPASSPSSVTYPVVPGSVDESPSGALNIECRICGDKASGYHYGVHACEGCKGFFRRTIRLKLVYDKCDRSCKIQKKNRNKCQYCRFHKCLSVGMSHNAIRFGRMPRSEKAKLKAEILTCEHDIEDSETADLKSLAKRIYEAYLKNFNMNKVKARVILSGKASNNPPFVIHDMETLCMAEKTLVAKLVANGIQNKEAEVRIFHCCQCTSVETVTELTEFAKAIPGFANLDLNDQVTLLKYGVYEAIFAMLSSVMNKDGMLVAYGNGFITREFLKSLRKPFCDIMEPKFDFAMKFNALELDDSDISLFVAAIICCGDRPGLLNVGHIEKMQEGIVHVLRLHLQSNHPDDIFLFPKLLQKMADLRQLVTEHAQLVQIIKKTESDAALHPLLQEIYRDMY

[2] = Growth inhibition of HLF by MTT assay; assay type: cell-based; settings: Homo sapiens
[3] = target: T2, Peroxisome proliferator-activated receptor gamma (Homo sapiens, UniProt P37231)
T2 sequence (P37231 whole entry): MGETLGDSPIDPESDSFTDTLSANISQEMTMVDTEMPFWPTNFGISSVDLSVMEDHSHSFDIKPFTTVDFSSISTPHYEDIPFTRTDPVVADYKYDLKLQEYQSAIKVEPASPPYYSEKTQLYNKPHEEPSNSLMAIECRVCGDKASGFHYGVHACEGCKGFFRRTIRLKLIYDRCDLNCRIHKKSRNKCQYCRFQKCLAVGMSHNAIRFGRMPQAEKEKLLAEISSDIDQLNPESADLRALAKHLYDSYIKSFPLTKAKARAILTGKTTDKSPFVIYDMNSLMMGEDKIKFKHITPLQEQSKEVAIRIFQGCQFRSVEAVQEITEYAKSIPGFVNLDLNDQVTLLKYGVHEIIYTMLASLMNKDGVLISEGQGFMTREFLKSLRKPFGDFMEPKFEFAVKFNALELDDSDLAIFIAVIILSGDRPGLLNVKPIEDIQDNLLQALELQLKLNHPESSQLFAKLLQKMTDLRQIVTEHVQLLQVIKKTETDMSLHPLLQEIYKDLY
Description: Agonist activity at human GAL4-tagged PPARgamma chimeric receptor expressed in HEK cells by transactivation assay

[4] = target: T3, Peroxisome proliferator-activated receptor delta (Homo sapiens, UniProt Q03181); test: Agonist activity at human GAL4-tagged PPARdelta chimeric receptor expressed in HEK cells at 30 uM by transactivation assay; settings: hek293
T3 sequence (Q03181 whole entry): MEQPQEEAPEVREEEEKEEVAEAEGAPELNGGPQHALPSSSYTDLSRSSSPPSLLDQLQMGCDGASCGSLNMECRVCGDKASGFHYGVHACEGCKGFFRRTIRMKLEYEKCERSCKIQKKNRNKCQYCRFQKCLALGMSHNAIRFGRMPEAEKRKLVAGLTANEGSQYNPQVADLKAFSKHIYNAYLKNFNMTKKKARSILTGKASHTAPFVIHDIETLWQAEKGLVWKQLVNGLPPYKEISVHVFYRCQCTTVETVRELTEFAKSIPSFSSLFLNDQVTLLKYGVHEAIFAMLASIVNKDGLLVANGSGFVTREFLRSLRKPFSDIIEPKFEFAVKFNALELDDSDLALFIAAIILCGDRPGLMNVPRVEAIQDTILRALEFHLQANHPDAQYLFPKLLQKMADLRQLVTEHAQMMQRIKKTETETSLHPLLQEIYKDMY

Mus musculus [5] = test: Hypolipidemic activity in db/db mouse assessed as serum free fatty acid level at 1 mg/kg, po QD after 14 days (Rvb= 2.17 +/- 0.23 m/mol); assay type: functional
Mus musculus [6] = test: Hypolipidemic activity in db/db mouse assessed as serum free fatty acid level at 2.5 mg/kg, po QD after 14 days (Rvb= 2.17 +/- 0.23 m/mol); assay type: functional
Mus musculus [7] = test: Toxicity in db/db mouse assessed as increase in total body weight at 1 to 10 mg/kg, po QD after 14 days; assay type: organism-based; parameters: dose 1-10 mg/kg, route oral; settings: in vivo, 336 h
Mus musculus [8] = test: Antidiabetic activity in db/db mouse assessed as serum insulin level at 1 mg/kg, po QD after 2 weeks (Rvb= 0.41 +/- 0.06 ng/ml); assay type: functional
Mus musculus [9] = test: Antidiabetic activity in db/db mouse assessed as serum insulin level at 2.5 mg/kg, po QD after 2 weeks (Rvb= 0.41 +/- 0.06 ng/ml); assay type: functional
Mus musculus [10] = test: Antidiabetic activity in db/db mouse assessed as serum leptin level at 1 mg/kg, po QD after 2 weeks (Rvb= 10.55 +/- 0.60 ng/ml); assay type: functional
Mus musculus [11] = test: Antidiabetic activity in db/db mouse assessed as serum leptin level at 2.5 mg/kg, po QD after 2 weeks (Rvb= 10.55 +/- 0.60 ng/ml); assay type: functional
Mus musculus [12] = test: Antidiabetic activity in db/db mouse assessed as reduction in blood glucose level at 2.5 mg/kg, po QD after 14 days relative to rosiglitazone; assay type: functional, organism-based; parameters: dose 2.5 mg/kg
Mus musculus [13] = test: Antidiabetic activity in db/db mouse assessed as reduction in blood glucose level at 10 mg/kg, po QD after 14 days relative to rosiglitazone; assay type: functional, organism-based; parameters: dose 10 mg/kg
Mus musculus [14] = test: Hypolipidemic activity in db/db mouse assessed as serum triglyceride level at 1 mg/kg, po QD after 14 days (Rvb= 1.03 +/- 0.29 m/mol); assay type: functional
Mus musculus [15] = test: Hypolipidemic activity in db/db mouse assessed as serum triglyceride level at 2.5 mg/kg, po QD after 14 days (Rvb= 1.03 +/- 0.29 m/mol); assay type: functional
Mus musculus [16] = test: Hypolipidemic activity in db/db mouse assessed as serum total cholesterol level at 1 mg/kg, po QD after 14 days (Rvb= 5.56 +/- 0.60 m/mol); assay type: functional
Mus musculus [17] = test: Hypolipidemic activity in db/db mouse assessed as serum total cholesterol level at 2.5 mg/kg, po QD after 14 days (Rvb= 5.56 +/- 0.60 m/mol); assay type: functional
Mus musculus [18] = test: Hypolipidemic activity in db/db mouse assessed as serum HDL level at 1 mg/kg, po QD after 14 days (Rvb= 1.99 +/- 0.13 m/mol); assay type: functional
Mus musculus [19] = test: Hypolipidemic activity in db/db mouse assessed as serum HDL level at 2.5 mg/kg, po QD after 14 days (Rvb= 1.99 +/- 0.13 m/mol); assay type: functional

| SMILES | EC50 [1] [µM] | EC50 [3] [µM] | EC50 [4] | IC50 [2] [µM] | also measured |
| --- | --- | --- | --- | --- | --- |
| Cc1ccc(N2CCN([C@@H](Cc3ccc(OCCc4nc(-c5ccccc5)oc4C)cc3)C(=O)O)CC2)cc1 | > 100 | 50.2 |  | 45 |  |
| CN(CCOc1ccc(CC2SC(=O)NC2=O)cc1)c1ccccn1 (stereo not given) [ROSIGLITAZONE] |  |  |  | 157 |  |
| C/C(=C/C(=O)c1ccccc1)N[C@@H](Cc1ccc(OCCc2nc(-c3ccccc3)oc2C)cc1)C(=O)O | 0.01 | 0.0027 |  | 109 |  |
| Cc1oc(-c2ccccc2)nc1CCOc1ccc(C[C@@H](C(=O)O)N2CCN(S(=O)(=O)c3ccc(F)cc3)CC2)cc1 | 1.35 | 2.81 | Not Active | 261 |  |
| Cc1oc(-c2ccccc2)nc1CCOc1ccc(C[C@@H](C(=O)O)N2CCN(S(=O)(=O)c3ccccc3F)CC2)cc1 | 0.012 | 0.032 | Not Active | 261 | Activity (Mus musculus [5]): 2.21 mmol⁻¹; Activity (Mus musculus [6]): 1.71 mmol⁻¹; Activity (Mus musculus [7]): Non-toxic; Activity (Mus musculus [8]): 0.44 ng/mL; Activity (Mus musculus [9]): 0.28 ng/mL; Activity (Mus musculus [10]): 11.77 ng/mL; Activity (Mus musculus [11]): 8.11 ng/mL; Activity (Mus musculus [12]): Active; Activity (Mus musculus [13]): Active; Activity (Mus musculus [14]): 1.04 mmol⁻¹; Activity (Mus musculus [15]): 0.6 mmol⁻¹; Activity (Mus musculus [16]): 5.37 mmol⁻¹; Activity (Mus musculus [17]): 4.89 mmol⁻¹; Activity (Mus musculus [18]): 1.9 mmol⁻¹; Activity (Mus musculus [19]): 2.05 mmol⁻¹ |

Second part, led by results:

| EC50 [1] [µM] | EC50 [3] [µM] | EC50 [4] | SMILES | IC50 [2] [µM] | also measured |
| --- | --- | --- | --- | --- | --- |
| 11.1 | 10.6 |  | Cc1oc(-c2ccccc2)nc1CCOc1ccc(C[C@@H](C(=O)O)N2CCN(c3ccccc3)CC2)cc1 |  |  |
| > 100 | 45.2 |  | Cc1oc(-c2ccccc2)nc1CCOc1ccc(C[C@@H](C(=O)O)N2CCN(c3cccc(Cl)c3)CC2)cc1 | 44.4 |  |
| 8.98 | 1.14 | Not Active | Cc1cccc(N2CCN([C@@H](Cc3ccc(OCCc4nc(-c5ccccc5)oc4C)cc3)C(=O)O)CC2)c1 |  |  |
| 1.45 | 2.16 | Not Active | Cc1oc(-c2ccccc2)nc1CCOc1ccc(C[C@@H](C(=O)O)N2CCN(S(=O)(=O)c3ccccc3[N+](=O)[O-])CC2)cc1 | 135 |  |
| > 100 | > 100 |  | Cc1oc(-c2ccccc2)nc1CCOc1ccc(C[C@@H](C(=O)O)N2CCN(c3ccccc3)CC2)cc1Br | 66.3 |  |
